Measurements: US10765114B2, “4-amino-6-(pyridyl and 2-substitutedphenyl)-picolinates and 6-amino-2-(pyridyl and 2-substitutedphenyl)-pyrimidine-4-carboxylates and their use as herbicides” (Dow AgroSciences LLC, priority 2013, dated 2020)

How the values were obtained:
BROTE (downy brome) = test: Post-Emergent Test III (Wheat and Barley); assay type: in vivo, Bromus tectorum; details: for Visual Growth Reduction (%) 21 Days After Application, BROTE: postemergence; for GR50, BROTE: effective dose for growth reduction of 50 percent; for GR50, BROTE / GR80, BROTE / GR90, BROTE: probit analysis; for GR80, BROTE: effective dose for growth reduction of 80 percent; for GR90, BROTE: effective dose for growth reduction of 90 percent
Description: (§1) Seeds of the desired test plant species were planted in Sun Gro MetroMix® 306 planting mixture, which typically has a pH of 6.0 to 6.8 and an organic matter content of about 30 percent, in plastic pots with a surface area of 103.2 square centimeters (cm^2). When required to ensure good germination and healthy plants, a fungicide treatment and/or other chemical or physical treatment was applied. The plants were grown for 7-36 days in a greenhouse with an approximate 14 h photoperiod which was maintained at about 18° C. during the day and 17° C. during the night. Nutrients and water were added on a regular basis and supplemental lighting was provided with overhead metal halide 1000-Watt lamps as necessary. The plants were employed for testing when they reached the second or third true leaf stage.
(§2) A weighed amount, determined by the highest rate to be tested, of each test compound was placed in a 25 mL glass vial and was dissolved in 4 mL of a 97:3 v/v mixture of acetone and DMSO to obtain concentrated stock solutions. […] The concentrated stock solutions obtained were diluted with 20 mL of an aqueous mixture containing acetone, water, isopropyl alcohol, DMSO, Agri-Dex crop oil concentrate, and X-77 surfactant in a 48:39:10:1.5:1.5:0.02 v/v ratio to obtain spray solutions containing the highest application rates. Additional application rates were obtained by serial dilution of 12 mL of the high rate solution into a solution containing 2 mL of 97:3 v/v mixture of acetone and DMSO and 10 mL of an aqueous mixture containing acetone, water, isopropyl alcohol, DMSO, Agri-Dex crop oil concentrate, and X-77 surfactant in a 48:39:10:1.5:1.5:0.02 v/v ratio to obtain ½×, ¼×, ⅛× and 1/16× rates of the high rate. Compound requirements are based upon a 12 mL application volume at a rate of 187 liters per hectare (L/ha). Formulated compounds were applied to the plant material with an overhead Mandel track sprayer equipped with 8002E nozzles calibrated to deliver 187 L/ha over an application area of 0.503 square meters at a spray height of 18 inches (43 cm) above the average plant canopy height. Control plants were sprayed in the same manner with the solvent blank.
(§3) The treated plants and control plants were placed in a greenhouse as described above and watered by subirrigation to prevent wash-off of the test compounds. After 21 dAYS, the condition of the test plants as compared with that of the untreated plants was determined visually and scored on a scale of 0 to 100 percent where 0 corresponds to no injury and 100 corresponds to complete kill and presented as indicated in Table A.
(§4) By applying the well-accepted probit analysis as described by J. Berkson in Journal of the American Statistical Society, 48, 565 (1953) and by D. Finney in “Probit Analysis” Cambridge University Press (1952), herbicidal injury of a specific compound at various rates can be used to calculate GR10, GR20, GR50, GR80 and GR90 values, which are defined as growth reduction factors that correspond to the effective dose of herbicide required to provide plant growth reduction (GR) of 10 percent, 20 percent, 50 percent, 80 percent and 90 percent, respectively. Probit analysis was applied to data collected from multiple dose rates of individual compounds utilizing the procedures explained in the following examples. The analysis of those dose rates is captured in the following tables.

SINAR (wild mustard) = test: Post-Emergent Test III (Wheat and Barley); assay type: in vivo, Sinapis arvensis; details: for Visual Growth Reduction (%) 21 Days After Application, SINAR: postemergence; for GR50, SINAR: effective dose for growth reduction of 50 percent; for GR50, SINAR / GR80, SINAR / GR90, SINAR: probit analysis; for GR80, SINAR: effective dose for growth reduction of 80 percent; for GR90, SINAR: effective dose for growth reduction of 90 percent
Description: as §1, §2, §3, §4

[1] = test system: test plant species in Wheat and Barley; test: Post-Emergent Test III (Wheat and Barley), further species of Table 9; assay type: in vivo; details: for Visual Growth Reduction (%) 21 Days After Application, CHEAL: CHEAL lambsquarters (Chenopodium album); for Visual Growth Reduction (%) 21 Days After Application, CHEAL / Visual Growth Reduction (%) 21 Days After Application, GALAP / Visual Growth Reduction (%) 21 Days After Application, STEME / Visual Growth Reduction (%) 21 Days After Application, VIOTR: post-emergent; for Visual Growth Reduction (%) 21 Days After Application, GALAP: GALAP cleavers (Galium aparine); for Visual Growth Reduction (%) 21 Days After Application, STEME: STEME common chickweed (Stellaria media); for Visual Growth Reduction (%) 21 Days After Application, VIOTR: VIOTR wild pansy (Viola tricolor)
Description: as §1, §2, §3, §4

Nc1c(F)c(-c2ccc(C(F)(F)F)nc2)nc(C(=O)O)c1Cl [Compound 46, 4-amino-5-chloro-3-fluoro-6′-(trifluoromethyl)-[2,3′-bipyridine]-6-carboxylic acid]
Visual Growth Reduction (%) 21 Days After Application, BROTE (BROTE (downy brome); 35 g ai/ha): E (45-59)
Visual Growth Reduction (%) 21 Days After Application, BROTE (BROTE (downy brome); 70 g ai/ha): D (60-74)
Visual Growth Reduction (%) 21 Days After Application, BROTE (BROTE (downy brome); 140 g ai/ha): B (85-94)
GR50, BROTE (BROTE (downy brome)): 42 g ai/ha
GR80, BROTE (BROTE (downy brome)): 93 g ai/ha
GR90, BROTE (BROTE (downy brome)): 140 g ai/ha
Visual Growth Reduction (%) 21 Days After Application, SINAR (SINAR (wild mustard); 35 g ai/ha): B (85-94)
Visual Growth Reduction (%) 21 Days After Application, SINAR (SINAR (wild mustard); 70 g ai/ha): B (85-94)
Visual Growth Reduction (%) 21 Days After Application, SINAR (SINAR (wild mustard); 140 g ai/ha): A (95-100)
GR50, SINAR (SINAR (wild mustard)): 2 g ai/ha
GR80, SINAR (SINAR (wild mustard)): 19 g ai/ha
GR90, SINAR (SINAR (wild mustard)): 62 g ai/ha

Cc1c(-c2cc(N)c(Cl)c(C(=O)O)n2)ccc(Cl)c1F [Compound 52]
Visual Growth Reduction (%) 21 Days After Application, BROTE (BROTE (downy brome); 35 g ai/ha): G (0-29)
Visual Growth Reduction (%) 21 Days After Application, BROTE (BROTE (downy brome); 70 g ai/ha): F (30-44)
Visual Growth Reduction (%) 21 Days After Application, BROTE (BROTE (downy brome); 140 g ai/ha): D (60-74)
GR50, BROTE (BROTE (downy brome)): 98 g ai/ha
GR80, BROTE (BROTE (downy brome)): >140 g ai/ha
GR90, BROTE (BROTE (downy brome)): >140 g ai/ha
Visual Growth Reduction (%) 21 Days After Application, SINAR (SINAR (wild mustard); 35 g ai/ha): A (95-100)
Visual Growth Reduction (%) 21 Days After Application, SINAR (SINAR (wild mustard); 70 g ai/ha): A (95-100)
Visual Growth Reduction (%) 21 Days After Application, SINAR (SINAR (wild mustard); 140 g ai/ha): A (95-100)
GR50, SINAR (SINAR (wild mustard)): 1 g ai/ha
GR80, SINAR (SINAR (wild mustard)): 1 g ai/ha
GR90, SINAR (SINAR (wild mustard)): 5 g ai/ha

COC(=O)c1nc(-c2ccc(Br)nc2)c(F)c(N)c1Cl [Compound 22, methyl 4-amino-6′-bromo-5-chloro-3-fluoro-[2,3′-bipyridine]-6-carboxylate]
Visual Growth Reduction (%) 21 Days After Application, CHEAL ([1]; 17.5 g ai/ha): A (95-100)
Visual Growth Reduction (%) 21 Days After Application, CHEAL ([1]; 35 g ai/ha): A (95-100)
Visual Growth Reduction (%) 21 Days After Application, CHEAL ([1]; 70 g ai/ha): A (95-100)
GR50, CHEAL ([1]; CHEAL, growth reduction of 50%, probit analysis, 21 days): 2 g ai/ha
GR80, CHEAL ([1]; CHEAL, growth reduction of 80%, probit analysis, 21 days): 6 g ai/ha
GR90, CHEAL ([1]; CHEAL, growth reduction of 90%, probit analysis, 21 days): 11 g ai/ha
Visual Growth Reduction (%) 21 Days After Application, GALAP ([1]; 17.5 g ai/ha): D (60-74)
Visual Growth Reduction (%) 21 Days After Application, GALAP ([1]; 35 g ai/ha): B (85-94)
Visual Growth Reduction (%) 21 Days After Application, GALAP ([1]; 70 g ai/ha): A (95-100)
GR50, GALAP ([1]; GALAP, growth reduction of 50%, probit analysis, 21 days): 11 g ai/ha
GR80, GALAP ([1]; GALAP, growth reduction of 80%, probit analysis, 21 days): 24 g ai/ha
GR90, GALAP ([1]; GALAP, growth reduction of 90%, probit analysis, 21 days): 36 g ai/ha
Visual Growth Reduction (%) 21 Days After Application, STEME ([1]; 17.5 g ai/ha): F (30-44)
Visual Growth Reduction (%) 21 Days After Application, STEME ([1]; 35 g ai/ha): E (45-59)
Visual Growth Reduction (%) 21 Days After Application, STEME ([1]; 70 g ai/ha): D (60-74)
GR50, STEME ([1]; STEME, growth reduction of 50%, probit analysis, 21 days): 28 g ai/ha
GR80, STEME ([1]; STEME, growth reduction of 80%, probit analysis, 21 days): >140 g ai/ha
GR90, STEME ([1]; STEME, growth reduction of 90%, probit analysis, 21 days): >140 g ai/ha
Visual Growth Reduction (%) 21 Days After Application, VIOTR ([1]; 17.5 g ai/ha): A (95-100)
Visual Growth Reduction (%) 21 Days After Application, VIOTR ([1]; 35 g ai/ha): A (95-100)
Visual Growth Reduction (%) 21 Days After Application, VIOTR ([1]; 70 g ai/ha): A (95-100)
GR50, VIOTR ([1]; VIOTR, growth reduction of 50%, probit analysis, 21 days): 4 g ai/ha
GR80, VIOTR ([1]; VIOTR, growth reduction of 80%, probit analysis, 21 days): 7 g ai/ha
GR90, VIOTR ([1]; VIOTR, growth reduction of 90%, probit analysis, 21 days): 9 g ai/ha
